Measurements as given in US20240148701A1, “WOULD HEALING METHODS” (The University of Sydney, priority 2021, published 2024).

Tests used:
[1] = tested on: endothelial colony forming cells (ECFC); assay: Tubule formation in patient-derived endothelial colony forming cells; format: cell-based, human
Description: Human umbilical vein endothelial cells (HUVECs; Lonza C2519AS, pooled source, Australia) were grown using standard cell culture conditions in endothelial cell growth medium (EGM Plus®, containing 2% fetal bovine serum, Lonza, Australia). All cells were regularly confirmed to be mycoplasma negative. Two different pooled source cell lines were used in experiments and all were used within passages 2-4. Human adult dermal microvascular endothelial cells were also obtained from Lonza (CC-2543, Lonza Australia) and cultured as above but using endothelial growth medium 2-MV bulletkit. Endothelial colony forming cells (ECFCs) were derived from the peripheral blood of participants in the BioHEART study. This registered study (ACTRN12618001322224) complies with the Declaration of Helsinki and the study protocol and design has been approved by the Northern Sydney Local Health District Human Research Ethics Committee (HREC/17/HAWKE/343). […]
Once they were ˜70% confluent, cells were re-suspended in diluted EGM Plus® (1:3) and plated on reduced-growth factor extracellular matrix (15 mg/ml, Cultrex, Trevigen, USA) at a density of 1.5×10^4 cells/cm^2. […] Cells were incubated in an EVOS FL Auto Imaging system for 16 hours and tubule formation recorded every hour. Optimal tube formation occurred at the 8-hour timepoint; tubule number at this point was quantified manually using NIH Image J software. […]

[2] = tested on: C57BL6/J mice; assay: Hind limb ischemia in type 2 diabetes model, laser Doppler perfusion; format: in vivo, mouse; settings: type 2 diabetes mice
Description: Male C57BL6/J mice 8-10 weeks of age were obtained from Australian BioResources (Moss Vale, NSW) with 12 hour light/dark cycles and free access to water and mouse chow (Specialty Feeds, Australia). Mice were housed in groups of 2-5 in standard cages within a Physical Containment Level 2 laboratory. For in vivo angiogenesis 16 mice underwent the femoral vascular ligation model. Mice were anaesthetized with 1.5-2% isoflurane vaporized in oxygen and constant body temperature was maintained. All mice received pre-operative and 24-hour post-operative analgesia (carprofen, 5 mg/kg s.c). A small incision (˜15 mm) was made in the hind limb skin directly over the femoral vasculature. A portion of the femoral artery and vein, distal to the origin of the profunda femoris artery and proximal to the saphenous artery, were isolated and two ligations were performed using 6-0 silk sutures. The femoral artery and vein were then excised between the ligation sites 27. […] Hind limb blood flow was assessed prior to ligation (baseline) and immediately after undergoing hind limb ischemia, with subsequent imaging at day 3, 7, 10, 14, 21 and 28 post hind limb ischemia. […] The rate of reperfusion in the hind limb was calculated as a ratio of blood flow in the ischemic versus non-ischemic contralateral limb. […]

[3] = tested on: eNOS; assay: NOS activity by radioimmunoassay in hind limb tissue; format: in vivo, mouse; settings: ischemic and non-ischemic limbs, 14 days post-surgery
Description: Hind limb tissue including the gastrocnemius and adductor muscles were isolated and collected at 14 or 28 days. Tissues were separated and implanted in OCT or placed in cryovials and snap-frozen in liquid nitrogen or were fixed in 10% formalin for 24-hours and then moved to 70% ethanol for storage.
The activity of NOS was measured using radioimmunoassay according to manufacturer's instructions (Cayman Chemical, USA). Samples were prepared in triplicate and detected using a liquid scintillation counter (5 min detection, Tri-Carb 4910TR 100V, Perkin Elmer, USA). All samples were also assayed in the presence of L-NAME and this was subtracted from the baseline to give a readout of NOS activity.

[4] = tested on: CD31; assay: CD31 histological analysis of hind limbs post-ischemia; format: in vivo, mouse; settings: both type 1 diabetes and non-diabetic mice
Description: Formalin fixed paraffin-embedded gastrocnemius was cut into 4 μm sections and then sections were deparaffinized. Heat retrieval was performed with Tris-EDTA buffer at pH 9. Slides were incubated overnight with a rabbit polyclonal CD31 antibody (dilution 1:200, Abcam Ltd, Australia) followed by horseradish peroxidase anti-rabbit Envision system (Dako Cytochemistry, Tokyo, Japan). Staining was developed with 3.3 diaminobenzidine tetrahydrochloride (Dako Cytochemistry, Tokyo, Japan) and counterstained with Mayer's hematoxylin stain. Rabbit IgG negative controls (Dako Cytochemistry, Tokyo, Japan) were used. A total of ten non-overlapping images for each gastrocnemius were taken with a light microscope (Leica, DM750 linked to an ICC50 E camera module). Images were taken at ×40 and analyzed with National Institute of Health Image J 1.51j8 software.

C[C@H](Cc1ccc2c(c1)OC(C(=O)[O-])(C(=O)[O-])O2)NC[C@H](O)c1cccc(Cl)c1.[Na+].[Na+] [CL 316,243]
angiogenesis (tubule formation) in ECFCs ([1]; ECFCs from patients with significant coronary artery disease, 100 ng/ml): effectively stimulate angiogenesis
angiogenesis in ECFCs ([1]; cells from relatively healthy participants): did not occur
reperfusion post-ischemia [2]: augmented reperfusion
eNOS activity [3]: enhanced eNOS activity
CD31+ staining in ischemic hindlimbs (vascularization) [4]: greater CD31+ staining
